Source: PMC4474874, “Effect of JAK Inhibitors on Release of CXCL9, CXCL10 and CXCL11 from Human Airway Epithelial Cells” (PLoS ONE, 2015)
Like-named read-outs stand apart in the source and are kept apart here.

Legend:
[1] = test system: human primary airway epithelial cells; experiment: Release of CXCL9, CXCL10 and CXCL11 from human primary airway epithelial cells (ELISA); format: cell-based; settings: for IC50 / EC50: Homo sapiens, Epithelial cell, pre-treated 1h; for IC50: pooled primary cells
Description: (§1) BEAS-2B cells (catalogue number CRL-9609) were purchased directly from American Type Culture Collection (Rockville, MD). Keratinocyte serum-free medium (K-SFM), bovine pituitary extract (BPE), and recombinant human epidermal growth factor (EGF) were purchased from Invitrogen (Paisley, UK). BEAS-2B cells were cultured in K-SFM containing 50 μg/ml BPE and 5 ng/ml EGF at 37°C in a humidified atmosphere comprising 5% (v/v) CO2 in air. Cells were cultured as monolayers in growth factor-free media for 24 h prior to stimulation. Human primary airway epithelial cells were cultured as monolayers from bronchial brushings from both male and female subjects (Table 1) and cultured in LHC-9 media (Invitrogen, Paisley, UK) in collagen (1% w/v) coated flasks. Samples were obtained from non-smokers, smokers and patients with COPD. […] The subjects were matched for age and smokers and COPD patients for smoking history (Table 1). All subjects gave informed written consent and the study was approved by the NRES London-Chelsea Research Ethics committee, study number 09/H0801/85.
(§2) Cell-free supernatants were removed 20h post-stimulation and assayed for CXCL9, CXCL10 and CXCL11 using Duoset ELISA kits (R & D Systems Europe, Abingdon, UK) according to the manufacturer’s instructions. The detection limits of these assays are 62pg/ml, 31pg/ml, and 7.8 pg/ml respectively.
(§3) Data are presented as mean ± SEM of ‘n’ independent determinations. Concentration-response curves were analysed by least-squares, non-linear iterative regression with the ‘Graphpad Prism’ curve fitting program (GraphPad software, San Diego, USA) and IC50 values were subsequently interpolated from curves of best-fit. Statistical differences were determined using the Kruskal–Wallis test followed by Dunn's multiple comparison test or a Wilcoxon signed rank test as appropriate. Values of P<0.05 were considered significant.
Media was harvested and the concentrations of CXCL9 (panels a and d), CXCL10 (panels b and e) and CXCL11 (panels c and f) were measured by ELISA. Data are presented as mean ± SEM, n = 10–13.

BEAS-2B cells = experiment: Release of CXCL9, CXCL10 and CXCL11 from BEAS-2B cells (ELISA), inhibitors added 1h before stimulus; format: cell-based, human; settings: for IC50: Homo sapiens, BEAS-2B, pre-treated 1h
Description: as §1, §2, §3
Media was harvested and the concentrations of CXCL9 (panels a and d), CXCL10 (panels b and e) and CXCL11 (panels c and f) were measured by ELISA. Data are presented as mean±SEM, n = 7–8.

STAT-3 = STAT-3 DNA binding in BEAS-2B cells (TransAM); format: cell-based, human; settings: IFNγ + TNFα, inhibitor 10^-6M
Description: STAT phosphorylation, nuclear translocation and DNA binding was determined using TransAM assays (Actif Motif, Rixensart, Belgium). Cells were treated with JAK inhibitors for 30 min prior to stimulation for 1h. Nuclear extracts were prepared using the Actif Motif assay reagents. Briefly, the nuclear extracts (10 μg) were incubated in DNA coated plates for 1h. After washing, antibodies supplied with the TransAM kit that were specific for the active forms of STAT1, STAT3, STAT5A and STAT5B were added to the wells and incubated for a further hour. The plates were washed and a secondary HRP-labelled anti-goat Ig antibody was added and the plates incubated for an hour. After washing, the assay was developed using the TMB substrate provided and the reaction stopped using 2N sulphuric acid. The plates were read at 450nm with a reference filter of 610nm. Data were then normalised to non-stimulated cells and calculated as fold change from baseline.
After 1 h, nuclear extracts of the cells were prepared and TransAM assays for STAT-1 (panel a) and STAT-3 (panel b) were performed. Data are presented as fold change from baseline ± SEM; n = 4.

MAP4K4 = test system: MAP4K4; design: method as in Coe et al., 25; settings: ATP at the Km; ref Coe et al., 25; cited from earlier work
STAT-1 = STAT-1 phosphorylation in human primary airway epithelial cells (western blot); format: cell-based; settings: 1μM inhibitor 1h, IFNγ and IFNγ + TNFα 10 min
Description: Enhanced chemiluminescence (ECL) reagent and Hybond-ECL nitrocellulose were obtained from GE Healthcare (Little Chalfont, UK). Bis-Tris SDS-PAGE (4–12%) gels and buffers were purchased from Invitrogen Ltd (Paisley, Scotland, UK). Antibodies against phosphorylated and total STAT-1 were purchased from New England Biolabs (Hitchin, UK). Epithelial cells were treated as indicated in six-well plates and lysed in 10 mM Tris-HCl buffer (pH 7.5) containing 150 mM NaCl, 2 mM EDTA, 1 mM sodium orthovanadate, 1% (v/v) Triton X-100, 1 mM phenylmethylsulfonyl fluoride, 10 μg/ml leupeptin, and 10 μg/ml aprotinin) for 30 min on ice. The lysates were then centrifuged at 12,000g for 15 min and protein concentration determined using the BCA protein assay (BioRad, Hemel Hempstead, UK). The proteins within the lysates (20 μg) were resolved with 4–12% Bis-Tris gels and transferred onto nitrocellulose membranes. The membranes were then blocked with 5% (w/v) non-fat milk in TBS containing 0.1% (v/v) Tween 20 for 1 h at room temperature and then incubated with antibodies specific for pSTAT-1 overnight at 4°C. The primary antibody was detected with peroxidase-conjugated secondary antibodies and labelled proteins were detected by ECL.
Cells were harvested and western blots performed for phosphorylated STAT-1 and total STAT-1 and quantified by densitometry. […]

[2] = IFNγ (10ng/ml) 20h, read-out: IC50, release of CXCL9
[3] = IFNγ (10ng/ml) 20h, read-out: IC50, release of CXCL10
[4] = IFNγ (10ng/ml) 20h, read-out: IC50, release of CXCL11
[5] = IFNγ+TNFα (10ng/ml) 20h, read-out: IC50, release of CXCL9
[6] = IFNγ+TNFα (10ng/ml) 20h, read-out: IC50, release of CXCL10
[7] = IFNγ+TNFα (10ng/ml) 20h, read-out: IC50, release of CXCL11

CCc1cc(O)ccc1-c1ccc2c(-c3nc4ccccc4[nH]3)n[nH]c2c1 [PF1367550, 4-(3-(1H-benzo[d]imidazol-2-yl)-1H-indazol-6-yl)-3-ethylphenol] showed an IC50 [1, 2] of 8.4 ± 1.3 nM, an IC50 [1, 3] of 10.4 ± 1.7 nM and an IC50 [1, 4] of 7 ± 0.9 nM. The IC50 [1, 5] was 17.6 ± 3 nM, the IC50 [1, 6] was 24.3 ± 2.4 nM and the IC50 [1, 7] was 14.5 ± 2.4 nM. For the same compound, the EC50 ([1]; primary cells from COPD patients, IFNγ (10 ng/ml) 20h, read-out: EC50, release of CXCL9) was 7.4 ± 1.3 nM, the EC50 ([1]; primary cells from COPD patients, IFNγ (10 ng/ml) 20h, read-out: EC50, release of CXCL10) was 7.1 ± 1.3 nM and the EC50 ([1]; primary cells from COPD patients, IFNγ (10 ng/ml) 20h, read-out: EC50, release of CXCL11) was 6.3 ± 1.4 nM. The EC50 ([1]; primary cells from COPD patients, IFNγ +TNFα (10 ng/ml) 20h, read-out: EC50, release of CXCL9) was 20.8 ± 4.8 nM, the EC50 ([1]; primary cells from COPD patients, IFNγ +TNFα (10 ng/ml) 20h, read-out: EC50, release of CXCL10) was 29.1 ± 3.5 nM and the EC50 ([1]; primary cells from COPD patients, IFNγ +TNFα (10 ng/ml) 20h, read-out: EC50, release of CXCL11) was 16.7 ± 4.1 nM. The EC50 ([1]; primary cells from non-smokers, IFNγ (10 ng/ml) 20h, read-out: EC50, release of CXCL9) was 9.73 ± 3.5 nM, the EC50 ([1]; primary cells from non-smokers, IFNγ (10 ng/ml) 20h, read-out: EC50, release of CXCL10) was 12.8 ± 5.6 nM and the EC50 ([1]; primary cells from non-smokers, IFNγ (10 ng/ml) 20h, read-out: EC50, release of CXCL11) was 8.5 ± 0.7 nM. For the same compound, the EC50 ([1]; primary cells from non-smokers, IFNγ +TNFα (10 ng/ml) 20h, read-out: EC50, release of CXCL9) was 14.1 ± 7.1 nM, the EC50 ([1]; primary cells from non-smokers, IFNγ +TNFα (10 ng/ml) 20h, read-out: EC50, release of CXCL10) was 20.3 ± 5.1 nM and the EC50 ([1]; primary cells from non-smokers, IFNγ +TNFα (10 ng/ml) 20h, read-out: EC50, release of CXCL11) was 13.7 ± 6.7 nM. For the same compound, the EC50 ([1]; primary cells from smokers, IFNγ (10 ng/ml) 20h, read-out: EC50, release of CXCL9) was 9 ± 3 nM, the EC50 ([1]; primary cells from smokers, IFNγ (10 ng/ml) 20h, read-out: EC50, release of CXCL10) was 12.3 ± 0.36 nM and the EC50 ([1]; primary cells from smokers, IFNγ (10 ng/ml) 20h, read-out: EC50, release of CXCL11) was 6.8 ± 1.9 nM. It also gave an EC50 ([1]; primary cells from smokers, IFNγ +TNFα (10 ng/ml) 20h, read-out: EC50, release of CXCL9) of 15.3 ± 4.8 nM, an EC50 ([1]; primary cells from smokers, IFNγ +TNFα (10 ng/ml) 20h, read-out: EC50, release of CXCL10) of 20.2 ± 3.6 nM and an EC50 ([1]; primary cells from smokers, IFNγ +TNFα (10 ng/ml) 20h, read-out: EC50, release of CXCL11) of 11.8 ± 2.9 nM. The “fold more potent than PF956980, CXCR3 chemokine release” value ([1]; pooled human primary airway epithelial cells) was ~ 80 fold, the “fold more potent than PF956980, CXCR3 chemokine release” value (BEAS-2B cells; BEAS-2B cells, IFNγ and IFNγ+TNFα) was ~ 50 fold and the IC50 (BEAS-2B cells; [2]) was 3.6 ± 1.4 nM. For the same compound, the IC50 (BEAS-2B cells; [3]) was 6.1 ± 2 nM, the IC50 (BEAS-2B cells; [4]) was 11.5 ± 2 nM and the IC50 (BEAS-2B cells; [5]) was 13.3 ± 2 nM. The IC50 (BEAS-2B cells; [6]) was 50.3 ± 8.5 nM, the IC50 (BEAS-2B cells; [7]) was 13.9 ± 2.6 nM and the “effect on STAT-3 binding to DNA” value (STAT-3) was “suppressed”. The IC50 (MAP4K4) was 60 nM and the “effect on phosphorylation of STAT-1” value (STAT-1) was “suppressed”.
